Data taken from ChEMBL document CHEMBL3739389, “2-Pyridylquinoloneantimalarials with improved antimalarial activity and physicochemical properties” (Medchemcomm, 2015).
Values after ≈ are worked out from the molar mass of the structure shown.

Experiments:
Plasmodium falciparum [1] = experiment: Antimalarial activity against drug resistant Plasmodium falciparum W2 infected in human erythrocytes assessed as growth inhibition after 48 hrs by SYBR Green 1 staining-based fluorescence assay; type: functional, organism-based; details: W2, 48 h
Plasmodium falciparum [2] = experiment: Antimalarial activity against drug resistant Plasmodium falciparum TM90C2B infected in human erythrocytes assessed as growth inhibition after 48 hrs by SYBR Green 1 staining-based fluorescence assay; type: functional, organism-based
[3] = Kinetic solubility of the compound in phosphate buffer at pH 1 at 200 uM; type: physicochemical; details: read-out: Kinetic_solubility
[4] = Kinetic solubility of the compound in fixanal buffer at pH 7.4 at 200 uM; type: physicochemical; details: read-out: Kinetic_solubility
[5] = Intrinsic clearance in human liver microsomes at 3 uM assessed per mg of protein up to 45 mins in presence of NADPH by LC-MS/MS analysis; type: ADME; details: read-out: CLH
Plasmodium falciparum [6] = experiment: Antimalarial activity against Plasmodium falciparum 3D7 infected in human erythrocytes assessed as growth inhibition after 48 hrs by SYBR Green 1 staining-based fluorescence assay; type: functional, organism-based; details: 3D7, 48 h
[7] = Intrinsic clearance in rat hepatocytes at 3 uM assessed per 10^6 cells up to 45 mins […] by LC-MS/MS analysis; type: ADME, cell-based, Hepatocyte; details: read-out: CLH
cytochrome b-c1 complex [8] = experiment: Inhibition of cytochrome b-c1 complex bovine heart mitochondrial membranes assessed as reduction in cytochrome c reductase activity using decylubiquinol as substrate at 100 uM by UV-visible spectrophotometric analysis; set-up: species or system Bos taurus; details: cattle, probe decylubiquinol
cytochrome b-c1 complex [9] = experiment: Inhibition of cytochrome b-c1 complex bovine heart mitochondrial membranes assessed as reduction in cytochrome c reductase activity using decylubiquinol as substrate at 1 uM by UV-visible spectrophotometric analysis; set-up: species or system Bos taurus; details: cattle, probe decylubiquinol

solubility kinetic at 200 µM [3] [µM]	solubility kinetic at 200 µM [4] [µM]	Compound	IC50 (Plasmodium falciparum [6]) [nM]	other results
–	–	COc1cccc2[nH]c(-c3ccc(-c4ccc(OC(F)(F)F)cc4)nc3)c(C)c(=O)c12	> 1000	–
–	–	COc1ccc2[nH]c(-c3ccc(-c4ccc(OC(F)(F)F)cc4)nc3)c(C)c(=O)c2c1	> 1000	–
–	–	COc1cccc2c(=O)c(C)c(-c3ccc(-c4ccc(OC(F)(F)F)cc4)nc3)[nH]c12	> 1000	–
–	–	Cc1c(-c2ccc(-c3ccc(OC(F)(F)F)cc3)nc2)[nH]c2ccc(O)cc2c1=O	326	–
–	–	Cc1c(-c2ccc(-c3ccc(OC(F)(F)F)cc3)nc2)[nH]c2c(O)cccc2c1=O	> 1000	–
–	–	COc1ccc2c(=O)c(C)c(-c3ccc(-c4ccc(Cl)c(Cl)c4)nc3)[nH]c2c1	200	–
15 (≈ 6.17 µg/mL)	14 (≈ 5.76 µg/mL)	COc1ccc2c(=O)c(C)c(-c3cncc(-c4ccc(Cl)c(Cl)c4)c3)[nH]c2c1	18	microsomal CLint at 3 µM [5]: 14 µL/min/mg; hepatocyte CLint at 3 µM [7]: 4.9 µL/min/1e6 cells; inhibition at 100 µM (cytochrome b-c1 complex [8]): 13%; inhibition at 1 µM (cytochrome b-c1 complex [9]): 20%
140 (≈ 55.5 µg/mL)	3.6 (≈ 1.43 µg/mL)	Cc1c(-c2cncc(-c3ccc(OC(F)(F)F)cc3)c2)[nH]c2ccccc2c1=O	41	microsomal CLint at 3 µM [5]: 12.5 µL/min/mg; hepatocyte CLint at 3 µM [7]: 1.8 µL/min/1e6 cells; inhibition at 100 µM (cytochrome b-c1 complex [8]): 20%; inhibition at 1 µM (cytochrome b-c1 complex [9]): 25%
–	–	Cc1c(-c2cccc(-c3ccc(OC(F)(F)F)cc3)n2)[nH]c2ccccc2c1=O	390	–
2.6 (≈ 1.11 µg/mL)	< 1	COc1ccc2c(=O)c(C)c(-c3ccc(-c4ccc(OC(F)(F)F)cc4)nc3)[nH]c2c1	14	inhibition at 100 µM (cytochrome b-c1 complex [8]): 55%; inhibition at 1 µM (cytochrome b-c1 complex [9]): 98%
–	–	COc1ccc2c(=O)c(C)c(-c3cc(-c4ccc(OC(F)(F)F)cc4)ccn3)[nH]c2c1	150	–
–	–	COc1ccc2c(=O)c(C)c(-c3ccc(-c4ccc(OC(F)(F)F)cc4)cn3)[nH]c2c1	> 1000	–
–	–	Cc1c(-c2ccc(-c3ccc(OC(F)(F)F)cc3)cn2)[nH]c2ccccc2c1=O	> 1000	–
–	–	COc1ccc2c(=O)c(C)c(-c3cccc(-c4ccc(OC(F)(F)F)cc4)n3)[nH]c2c1	149	–
–	–	O=c1c2c([nH]c3ccccc13)CN(Cc1ccc(OC(F)(F)F)cc1)C2	200	–
–	–	O=c1c2c([nH]c3ccccc13)CN(Cc1ccc(Cl)c(Cl)c1)C2	70	–
–	–	Cc1c(-c2cncc(-c3ccc(Cl)c(Cl)c3)c2)[nH]c2ccccc2c1=O	40	microsomal CLint at 3 µM [5]: 5.6 µL/min/mg; hepatocyte CLint at 3 µM [7]: 9.9 µL/min/1e6 cells
79 (≈ 31.3 µg/mL)	2.1 (≈ 0.832 µg/mL)	Cc1c(-c2ccnc(-c3ccc(OC(F)(F)F)cc3)c2)[nH]c2ccccc2c1=O	21	microsomal CLint at 3 µM [5]: 7.7 µL/min/mg; hepatocyte CLint at 3 µM [7]: 2.5 µL/min/1e6 cells; inhibition at 100 µM (cytochrome b-c1 complex [8]): 52%; inhibition at 1 µM (cytochrome b-c1 complex [9]): 81%
–	–	O=C1C(O)=C([C@H]2CC[C@H](c3ccc(Cl)cc3)CC2)C(=O)c2ccccc21 [ATOVAQUONE]	–	IC50 (Plasmodium falciparum [1]): 0.3 nM; IC50 (Plasmodium falciparum [2]): 9910 nM

Compound	solubility kinetic at 200 µM [3] [µM]	solubility kinetic at 200 µM [4] [µM]	IC50 (Plasmodium falciparum [6]) [nM]	other results
Cc1c(-c2ccc(-c3ccc(OC(F)(F)F)cc3)nc2)[nH]c2ccccc2c1=O	3.2 (≈ 1.27 µg/mL)	< 1	–	IC50 (Plasmodium falciparum [1]): 48 nM; IC50 (Plasmodium falciparum [2]): 156 nM; microsomal CLint at 3 µM [5]: 20.6 µL/min/mg
COc1ccc2c(=O)c(C)c(-c3ccnc(-c4ccc(OC(F)(F)F)cc4)c3)[nH]c2c1	120 (≈ 51.2 µg/mL)	< 1	12	IC50 (Plasmodium falciparum [1]): 4.2 nM; IC50 (Plasmodium falciparum [2]): 7 nM; inhibition at 100 µM (cytochrome b-c1 complex [8]): 63%; inhibition at 1 µM (cytochrome b-c1 complex [9]): 85%
COc1ccc2c(=O)c(C)c(-c3cncc(-c4ccc(OC(F)(F)F)cc4)c3)[nH]c2c1	7.8 (≈ 3.33 µg/mL)	< 1	12	IC50 (Plasmodium falciparum [1]): 4 nM; IC50 (Plasmodium falciparum [2]): 7.2 nM; microsomal CLint at 3 µM [5]: 25.9 µL/min/mg; hepatocyte CLint at 3 µM [7]: 1.2 µL/min/1e6 cells; inhibition at 100 µM (cytochrome b-c1 complex [8]): 19%; inhibition at 1 µM (cytochrome b-c1 complex [9]): 81%
